Assay results reported in paper PMC6981581, “N-(2-Arylmethylthio-4-Chloro-5-Methylbenzenesulfonyl)amide Derivatives as Potential Antimicrobial Agents—Synthesis and Biological Studies” (International Journal of Molecular Sciences, 2019).
≈ marks a conversion by molar mass, not a printed value. Where “and” joins values, the source holds several entries; their conditions need not be identical. Equal values may be shown once. Read-outs that look alike come from different tables or passages of the source.

What was measured:
[1] = test system: Enterococcus faecalis ATCC 11420; assay: Broth dilution MIC/MBC, reference strain; assay type: cell-based
Procedure, shortened: (§1)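 Compounds were serially diluted in Mueller Hinton Broth 2, inoculated at 5 × 10^5 cfu/mL and incubated at 37 °C for 18 h. Samples were then plated on Tryptic Soy Agar for 48 h at 37 °C to obtain bactericidal or fungicidal endpoints.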

[2] = test system: Escherichia coli ATCC 11229; assay: Broth dilution MIC/MBC, reference strain; assay type: cell-based
Procedure, shortened: as §1

[3] = test system: Proteus vulgaris NCTC 4635; assay: Broth dilution MIC/MBC, reference strain; assay type: cell-based
Procedure, shortened: as §1

[4] = test system: Pseudomonas aeruginosa ATCC 15442; assay: Broth dilution MIC/MBC, reference strain; assay type: cell-based
Procedure, shortened: as §1

[5] = test system: Staphylococcus aureus ATCC 43300 (MRSA); assay: Broth dilution MIC/MBC, reference strain; assay type: cell-based
Procedure, shortened: as §1

[6] = test system: Staphylococcus aureus ATCC 6538 (MSSA); assay: Broth dilution MIC/MBC, reference strain; assay type: cell-based
Procedure, shortened: as §1

[7] = test system: Staphylococcus epidermidis PCM 2118; assay: Broth dilution MIC/MBC, reference strain; assay type: cell-based
Procedure, shortened: as §1

[8] = test system: Candida albicans ATCC 10231; assay: Broth dilution MIC/MFC, reference fungal strain; assay type: cell-based
Procedure, shortened: as §1

[9] = test system: HaCaT cell line (human keratinocyte); assay: MTT cell viability assay; assay type: cell-based; conditions: MTT assay, 72 h incubation, mean ± SD, read-out: IC50 HaCaT
HCT-116 (colon cancer) = assay: MTT cell viability assay; assay type: cell-based; conditions: Homo sapiens, 72 h incubation, mean ± SD
Method: (§2) Analysis was performed using the MTT test and 72 h of incubation.
(§3) All chemicals were obtained from Sigma-Aldrich (St. Louis, MO, USA). The MCF-7 and HeLa cell lines were purchased from Cell Lines Services (Eppelheim, Germany), the HCT-116 cell line was purchased from ATCC (ATCC-No: CCL-247). Cells were cultured in Dulbecco’s modified Eagle’s medium (DMEM) supplemented with 10% fetal bovine serum, 2 mM glutamine, 100 units/mL penicillin, and 100 μg/mL streptomycin. Cultures were held in an incubator (Heraceus, HeraCell) in a humidified atmosphere with 5% CO2 at 37 °C.
(§4) Cell viability was evaluated using the MTT (3-(4,5-dimethylthiazol-2-yl)-2,5-diphenyltetrazolium bromide) assay. Stock solutions of the studied compounds were obtained in 100% DMSO. […] Cells at a density of 5 × 10^3 cells/well, seeded in 96-well plates, were treated for 72 h with the tested compounds in the concentration range 1–100 μM (1, 10, 25, 50 and 100 μM). After treatment, cells were incubated for 2 h with MTT (0.5 mg/mL) at 37 °C. Cells were lysed with DMSO and the absorbance of the formazan solution was measured at 550 nm with a plate reader (1420 multilabel counter, Victor, Jügesheim, Germany). Values are expressed as the mean ± SD of at least three independent experiments conducted in triplicate.

HeLa (cervical cancer) = assay: MTT cell viability assay; assay type: cell-based; conditions: Homo sapiens, 72 h incubation, mean ± SD
Method: as §2, §3, §4

MCF-7 (breast cancer) = assay: MTT cell viability assay; assay type: cell-based; conditions: Homo sapiens, MCF7, 72 h incubation, mean ± SD
Method: as §2, §3, §4

[10] = test system: clinical isolates of methicillin-resistant S. aureus (50–54) and methicillin-sensitive S. aureus (55–59); assay: Broth dilution MIC/MBC, summary over clinical S. aureus isolates; assay type: cell-based, Staphylococcus aureus
Description: […]. Both MRSA and MSSA strains were derived from various human infections.
[…]. Five methicillin-resistant S. aureus strains were isolated from nose (n = 1), bronchoalveolar lavage (n = 1), sputum (n = 1), wound (n = 1), and blood (n = 1); five methicillin-susceptible S. aureus strains were isolated from throat (n = 1), bronchoalveolar lavage (n = 1), sputum (n = 1), abscess (n = 1), and blood (n = 1).
The identity of S. aureus isolates was confirmed with conventional methods and with Pastorex Staph-Plus latex agglutination kit (Bio-Rad, Marnes-la-Coquette, France) and verified applying the polymerase chain reaction (PCR) of S. aureus-specific region of the thermonuclease gene, nuc. Resistance to methicillin was first verified using cefoxitin disk (30 µg), and then, identified based on the presence of mecA gene. S. aureus ATCC®25923 (methicillin-susceptible) and S. aureus ATCC®43300 (MDR) were applied as the reference strains. Both the reference and clinical strains were stored at −80 °C, in Tryptic Soy Broth (TSB, Becton-Dickinson, Franklin Lakes, NJ, USA) supplemented with 15% glycerol.
A broth dilution method was used to determine minimal inhibitory concentration (MIC) for tested compounds as recommended by Clinical Laboratory Standards Institute (CLSI) guidelines. Investigated compounds were diluted in Mueller Hinton Broth 2 (Sigma-Aldrich Co., St. Louis, MO, USA) in polypropylene 96-well plates and initial inoculum 5 × 10^5 cfu/mL were incubated at 37 °C for 18 h. MIC was taken as the lowest drug concentration at which an observable growth was inhibited. […] The loopful (10 µL) of the tested sample was transferred to Tryptic Soy Agar (TSA, Becton-Dickinson, Franklin Lakes, NJ, USA) and incubated at 37 °C for 48 h. […] Drug Solutions were made fresh on the day of the assay. All experiments were performed in triplicate.

MBC/MIC ([1]; E. f. ATCC 11420): 8
MIC ([1]; Enterococcus faecalis, ATCC11420, E. faecalis ATCC 11420, read-out: MIC): 8 µg/mL (≈ 15 µM)
MBC/MIC ([2]; E. c. ATCC 11229): >1
MIC ([2]; Escherichia coli, ATCC11229, E. coli ATCC 11229, read-out: MIC): 128 µg/mL (≈ 240 µM)
MBC/MIC ([3]; P. v. NCTC 4635): >1
MIC ([3]; Proteus vulgaris, NCTC4635, P. vulgaris NCTC 4635, read-out: MIC): 128 µg/mL (≈ 240 µM)
MBC/MIC ([4]; P. a. ATCC 15442): >1
MIC ([4]; Pseudomonas aeruginosa, ATCC15442, P. aeruginosa ATCC 15442, read-out: MIC): 128 µg/mL (≈ 240 µM)
MBC/MIC ([5]; S. a. ATCC 43300): 2
MIC ([5]; Staphylococcus aureus, S. aureus ATCC 43300, read-out: MIC): 8 µg/mL (≈ 15 µM)
MBC/MIC ([6]; S. a. ATCC 6538): 8
MIC ([6]; Staphylococcus aureus, S. aureus ATCC 6538, read-out: MIC): 8 µg/mL (≈ 15 µM)
MBC/MIC ([7]; S. e. PCM 2118): 1
MIC ([7]; Staphylococcus epidermidis, PCM2118, S. epidermidis PCM 2118, read-out: MIC): 8 µg/mL (≈ 15 µM)
MFC/MIC ([8]; C. a. ATCC 10231): 2
MIC ([8]; Candida albicans, ATCC10231, C. albicans ATCC 10231, read-out: MIC): 64 µg/mL (≈ 120 µM)
IC50 (HCT-116 (colon cancer)): 78 ± 3 µM
IC50 (HeLa (cervical cancer)): 94 ± 3 µM
IC50 (MCF-7 (breast cancer)): 81 ± 3 µM
MIC ([10]; Staphylococcus aureus, reference MRSA and MSSA strains as well as clinical isolates, read-out: MIC): 4 to 8 µg/mL (≈ 7.49 to 15 µM)
MIC ([10]; Staphylococcus aureus, summary over ten clinical MRSA and MSSA isolates (Table 4), read-out: MIC): 4 µg/mL (≈ 7.49 µM)
MIC ([10]; summary over ten clinical MRSA and MSSA isolates (Table 4)): 4 to 8 µg/mL
SMILES: Cc1cc(S(=O)(=O)NC(=O)CCC2CCCCC2)c(SCc2cccc(C(F)(F)F)c2)cc1Cl [Compound 10, N-[4-Chloro-5-methyl-2-(3-trifluoromethylbenzylthio)benzenesulfonyl]-3-cyclohexylpropanamide]
MBC ([1]; Enterococcus faecalis, ATCC11420, E. faecalis ATCC 11420, read-out: MBC): 64 µg/mL (≈ 120 µM)
MBC ([2]; Escherichia coli, ATCC11229, E. coli ATCC 11229, read-out: MBC): > 128 µg/mL
MBC ([3]; Proteus vulgaris, NCTC4635, P. vulgaris NCTC 4635, read-out: MBC): > 128 µg/mL
MBC ([4]; Pseudomonas aeruginosa, ATCC15442, P. aeruginosa ATCC 15442, read-out: MBC): > 128 µg/mL
MBC ([5]; Staphylococcus aureus, S. aureus ATCC 43300, read-out: MBC): 16 µg/mL (≈ 30 µM)
MBC ([6]; Staphylococcus aureus, S. aureus ATCC 6538, read-out: MBC): 64 µg/mL (≈ 120 µM)
MBC ([7]; S. epidermidis PCM 2118): 8 µg/mL (≈ 15 µM)
MBC ([7]; Staphylococcus epidermidis, PCM2118, S. epidermidis PCM 2118, read-out: MBC): 4 to 16 µg/mL (≈ 7.49 to 30 µM)
MFC ([8]; Candida albicans, ATCC10231, C. albicans ATCC 10231, read-out: MFC): 128 µg/mL (≈ 240 µM)
IC50 [9]: 95 µg/mL and 178 µM
MBC ([10]; Staphylococcus aureus, summary over ten clinical MRSA and MSSA isolates (Table 4), read-out: MBC): > 128 µg/mL
